# Laboratory results as given in US10889551B2, “Biemamides and related scaffolds as inhibitors of transforming growth factor-beta signaling” (Wisconsin Alumni Research Foundation, priority 2018, dated 2021).
# Assays:
# [1] = tested on: NMuMG epithelial cells; assay: TGF-β induced EMT in NMuMG cell line (imaging assay); format: cell-based, mouse; settings: 50 pM TGF-β, 72 h
# Description: Mouse mammary epithelial cell line NMuMG was purchased from American Tissue Culture Collection (ATCC, Manassas, Va.), and NMuMG were cultured as per ATCC recommendations. Imaging assay: Cells were plated in glass bottomed 96 well imaging plates, at a density of 1,000 cells per well, and were allowed to attach overnight. Cells (with exception of 3 control wells) were treated with 50 pm TGF-β. Along with the TGF-β test compounds 1-5 were added in at various doses, and a set of wells was treated with a known TGF-β inhibitor SB431542 at 1 μM.
# In the absence of TGF-β, NMuMG cells form an epithelial shape; incubation with 50 pM TGF-β for 72 h induces a more fibroblast-like, spindle shaped morphology indicative of mesenchymal cells (FIGS. 3A-3D). […] Nine concentrations (160-0.625 nM) of compounds 1-5 were tested for their ability to impact TGF-β signaling in NMuMG cells.
# [2] = target: TGF-β signaling; assay: MLEC luciferase assay (TGF-β activated luciferase, Bright-Glo); format: cell-based, mink; settings: purified compounds, 24 hours with TGF-β, read-out: IC50, inhibition of TGF-β (MLEC-based TGF-β inhibition assay)
# Description: A total of 3840 fractions, plated on 12 384-well plates, were assayed in a high throughput screen at 10 μM final concentration. For purposes of concentration calculations we set the average molecular weight of each compound in the library at 500 Da. Each fraction had its different mass, therefore different volumes were used for each well in the screening. Z′ for the plates were between 0.53 and 0.45. Initial hits were identified as compounds that inhibited the Bright-Glo signal (see below MLEC assay) by more than 84%. Using this criteria, we identified 48 compounds of interest. The 48 initial hits were then re-screened in a 10 point dose response curve in duplicate. The compounds were assayed for both luciferase inhibition and toxicity using CellTiter-Glo (Promega). Of the 48 compounds identified in the HTS assay, 19 inhibited TGF-β activated luciferase activity without inducing mink lung cell toxicity. MLEC were plated into 384-well plates at a density of 5000 cells/well using Micro-flow (Biotek) multi well reagent dispenser and incubated overnight at 37° C. in the CO2 incubator. 1 μM control SB431542 or 10 μM of compounds 1-5 were added to the wells using the ECHO 550 (Labcyte), then added 10 μL media with […] TGF-β using Micro-flow and incubated for 24 hours at 37° C. 25 μL Bright-Glo (Promega) was added using Micro-flow, and agitated for 4 minutes. The Enspire (Perkin Elmer) plate reader was used to measure the TGF-β response in each well. The luciferase activity was reported as relative light units (RLU), and the readout of each tested fraction was then normalized against negative controls. Dose-response TGF-β data and cytotoxicity assays using fibroblasts were employed to more rigorously evaluate the 48 initial hits. […] Chemical analysis of the secondary metabolites in the active wells/extract fractions of WMMA2266 led to the discovery of five pyrimidinedione derivatives, biemamides A-E (1-5).
# [3] = tested on: C. elegans; assay: C. elegans assay (development and body length); format: in vivo; settings: three concentrations spanning 1 μM→100 μM
# Description: Synchronized cultures of C. elegans were obtained using the following procedure: a mixed population of worms containing many gravid adults was washed off of two 10 cm NGM plates using distilled water. C. elegans were pelleted at 1000 g in a 15 mL conical tube and the supernatant was discarded. A mix of 3 mL distilled water, 1 mL bleach, and 1 mL 1 M NaOH was added. The tube was inverted for several minutes until it could be observed that the gravid adults had released their eggs. The eggs were pelleted at 1000 g, washed three times with distilled water and suspended in 10 mL of M9 (3.0 g KH2PO4, 6.0 g Na2HPO4, 0.5 g NaCl, 1.0 g NH4Cl into 1 L distilled water). The egg suspension was rotated overnight in a 50 mL conical tube during which the embryos hatched and arrested at the L1 stage. The C. elegans were washed twice and diluted with M9 to reach an approximate concentration of 20 worms/10 μL. Each well in a 96-well plate was prepared by adding 10 μL worm suspension, 0.5 μg OP50 E. coli, 1 μL DMSO (control) or 1 μL DMSO with compounds, and brought to a final volume of 100 μL with M9 plus cholesterol (5 μg/mL). The plates were incubated in a humidified box at 23° C. for 72 hours. To immobilize worms to measure body length the worms were killed by immersing the 96-well plate in a 70° C. water bath for several minutes. Each experiment was performed in triplicate within each plate. […]
Molecule,inhibition of TGF-β-induced EMT (cell morphology) ([1]; nine concentrations 160-0.625 nM (FIG. 3C: 160 nM compound 1)),IC50 [2] [nM],"inhibition of TGF-β-induced EMT (cell morphology), positive control ([1]; 1 μM)",C. elegans size [3]
Biemamide A [Compound 1],cells maintained their epithelial phenotype,51.5,,
Biemamide D [Compound 4],,102,,
Biemamide B [Compound 2],,18.7,,
Biemamide C [Compound 3],,51.5,,
Biemamide E [Compound 5],,83.2,,
"NC(=O)c1ccc(-c2nc(-c3ccc4c(c3)OCO4)c(-c3ccccn3)[nH]2)cc1 [SB431542, reference compound]",,411,blocked TGF-β-induced transition of the NMuMG epithelial cells into mesenchymal cells,did not alter C. elegans size
